The record followed here is US20070249690A1, “N-[2-(4-Pyridinyl)Ethyl]Benzamide Derivatives as Fungicides” (priority 2004, published 2007).

In assay [1] the test system is Botrytis cinerea. The assay is described as follows: In vivo test on Botrytis cinerea (cucumber grey mould), cucumber plants. The note with it: 330 ppm; for effectiveness on Botrytis cinerea: comparison compounds of WO 01/11965. The procedure:
The active ingredient tested is prepared by potter homogenisation in a concentrated suspension type formulation at 100 g/l. This suspension is then diluted with water to obtain the desired active material concentration.
Cucumber plants (Marketer variety) in starter cups, sown on a 50/50 peat soil-pozzolana substrate and grown at 18-20° C., are treated at the cotyledon Z11 stage by spraying with the aqueous suspension described above. Plants, used as controls, are treated with an aqueous solution not containing the active material.
After 24 hours, the plants are contaminated by depositing drops of an aqueous suspension of Botrytis cinerea spores (150,000 spores per ml) on upper surface of the leaves. The spores are collected from a 15-day-old culture and are suspended in a nutrient solution composed of: • 20 g/L of gelatin • 50 g/L of cane sugar • 2 g/L of NH4NO3 • 1 g/L of KH2PO4
The contaminated cucumber plants are settled for 5/7 days in a climatic room at 15-11° C. (day/night) and at 80% relative humidity.
Grading is carried out 5/7 days after the contamination, in comparison with the control plants. Under these conditions, good (at least 50%) or total protection is observed at a dose of 330 ppm with the following compounds: 3.

Assay [2] has as its system Alternaria brassicae. Put plainly: In vivo test on Alternaria brassicae (leaf spot of crucifers), radish plants. The note with it: 330 ppm, comparison compounds of WO 01/11965. The procedure:
The active ingredient tested is prepared by potter homogenisation in a concentrated suspension type formulation at 100 g/l. […] Radish plants (Pernot variety) in starter cups, sown on a 50/50 peat soil-pozzolana substrate and grown at 18-20° C., are treated at the cotyledon stage by spraying with the aqueous suspension described above. Plants, used as controls, are treated with an aqueous solution not containing the active material. After 24 hours, the plants are contaminated by spraying them with an aqueous suspension of Alternaria brassicae spores (40,000 spores per cm^3). The spores are collected from a 12 to 13 days-old culture. The contaminated radish plants are incubated for 6-7 days at about 18° C., under a humid atmosphere. Grading is carried out 6 to 7 days after the contamination, in comparison with the control plants. Under these conditions, good (at least 50%) or total protection is observed at a dose of 330 ppm with the following compounds: 1, 2, 3 and 4.

Assay [3] has as its system Peronospora parasitica. The assay is described as follows: Efficacy against Peronospora parasitica. As to conditions: 330 ppm, comparison compound of WO 01/11965. The format is in vivo.

With `CCNC(=O)C(Cc1ncc(C(F)(F)F)cc1Cl)NC(=O)c1ccc(Cl)cc1` (stereo not shown) [compound 306, N-{1-ethylcarbamoyl-2-[3-chloro-5-(trifluoromethyl)-2-pyridinyl]ethyl}-4-chlorobenzamide], in assay [1], the “effectiveness on Botrytis cinerea” value was “zero effectiveness”.

With `CNC(=O)C(Cc1ncc(C(F)(F)F)cc1Cl)NC(=O)c1ccc(OC)cc1` (stereo not shown) [compound 315, N-{1-methylcarbamoyl-2-[3-chloro-5-(trifluoromethyl)-2-pyridinyl]ethyl}-4-methoxybenzamide], the “effectiveness on Botrytis cinerea” value in assay [1] is “zero effectiveness”.

Take `CCNC(=O)C(Cc1ncc(C(F)(F)F)cc1Cl)NC(=O)c1ccccc1Br` (stereo not shown) [compound 310, N-{1-ethylcarbamoyl-2-[3-chloro-5-(trifluoromethyl)-2-pyridinyl]ethyl}-2-bromobenzamide]: the “effectiveness on Botrytis cinerea” value in assay [1] is reported as “zero effectiveness”.

Take `CCNC(=O)C(Cc1ncc(C(F)(F)F)cc1Cl)NC(=O)c1cccc([N+](=O)[O-])c1` (stereo not shown) [compound 307, N-{1-ethylcarbamoyl-2-[3-chloro-5-(trifluoromethyl)-2-pyridinyl]ethyl}-3-nitrobenzamide]: the “effectiveness on Alternaria brassicae” value in assay [2] was “poor effectiveness”. In addition, the “effectiveness on Botrytis cinerea” value in assay [1] was “zero effectiveness”.

Regarding `O=C(Cc1cccs1)NCc1ncc(C(F)(F)F)cc1Cl` [compound 101, N-{[3-chloro-5-(trifluoromethyl)-2-pyridinyl]methyl}-5-thienylacetamide], in assay [2], the “effectiveness on Alternaria brassicae” value is given as “poor efficacy”. The “effectiveness on Botrytis cinerea” value in assay [1] is listed as “no efficacy”. For the same compound, the “efficacy against Peronospora parasitica” value in assay [3] is reported as “no efficacy”.

Consider `CNC(=O)C(Cc1ncc(C(F)(F)F)cc1Cl)NC(=O)c1ccccc1` (stereo not shown) [compound 314, N-{1-methylcarbamoyl-2-[3-chloro-5-(trifluoromethyl)-2-pyridinyl]ethyl}-benzamide], for which the “effectiveness on Botrytis cinerea” value in assay [1] is “zero effectiveness”.

As to `CCNC(=O)C(Cc1ncc(C(F)(F)F)cc1Cl)NC(=O)c1ccccc1` (stereo not shown) [compound 304, N-{1-ethylcarbamoyl-2-[3-chloro-5-(trifluoromethyl)-2-pyridinyl]-ethyl}-benzamide], in assay [1], the “effectiveness on Botrytis cinerea” value was “zero effectiveness”.

Take `O=C(NCCc1cc(F)ncc1F)c1ccccc1C(F)(F)F` [Compound 3]: the “protection (good, at least 50%, or total)” value in assay [1] (preventive spray on cucumber plants, grading 5/7 days after contamination, versus control plants) is recorded as “at least 50%”.

Turning to `CNC(=O)C(Cc1ncc(C(F)(F)F)cc1Cl)NC(=O)c1ccc(-c2ccccc2)cc1` (stereo not shown) [compound 316, N-{1-methylcarbamoyl-2-[3-chloro-5-(trifluoromethyl)-2-pyridinyl]-ethyl}-4-phenylbenzamide], the “effectiveness on Alternaria brassicae” value in assay [2] is given as “poor effectiveness”. In addition, the “effectiveness on Botrytis cinerea” value in assay [1] is on record as “zero effectiveness”.
